PubChem BioAssay (NCI)
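Following 48 hours of exposure in 96-well plates, responses at five concentrations were used to interpolate endpoints linearly. At the GI50, growth is halved. The concentration for full growth arrest is given as TGI.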

What was measured:
Assay in all cases: NCI tumour cell line growth inhibition, 48 h
[1] = test system: 786-0 renal
[2] = test system: A498 renal
[3] = test system: A549 NSCLC
[4] = test system: ACHN renal
[5] = test system: BT-549 breast
[6] = test system: CAKI-1 renal
[7] = test system: COLO 205 colon
[8] = test system: DU-145 prostate
[9] = test system: EKVX NSCLC
[10] = test system: HCC-2998 colon
[11] = test system: HCT-116 colon
[12] = test system: HCT-15 colon
[13] = test system: HL-60(TB) leukemia
[14] = test system: HOP-62 NSCLC
[15] = test system: HS 578T breast
[16] = test system: HT29 colon
[17] = test system: IGROV1 ovarian
[18] = test system: K-562 leukemia
[19] = test system: KM12 colon
[20] = test system: LOX IMVI melanoma
[21] = test system: M14 melanoma
[22] = test system: MALME-3M melanoma
[23] = test system: MCF7 breast
[24] = test system: MDA-MB-231 breast
[25] = test system: MDA-MB-435
[26] = test system: MOLT-4 leukemia
[27] = test system: NCI-H226 lung
[28] = test system: NCI-H23 lung
[29] = test system: NCI-H460 lung
[30] = test system: NCI-H522 lung
[31] = test system: NCI/ADR-RES ovarian
[32] = test system: OVCAR-3 ovarian
[33] = test system: OVCAR-4 ovarian
[34] = test system: OVCAR-5 ovarian
[35] = test system: OVCAR-8 ovarian
[36] = test system: PC-3 prostate
[37] = test system: RPMI-8226 leukemia
[38] = test system: RXF 393 renal
[39] = test system: SF-268 CNS
[40] = test system: SF-295 CNS
[41] = test system: SF-539 CNS
[42] = test system: SK-MEL-28 melanoma
[43] = test system: SK-MEL-5 melanoma
[44] = test system: SK-OV-3 ovarian
[45] = test system: SN12C renal
[46] = test system: SNB-19 CNS
[47] = test system: SNB-75 CNS
[48] = test system: SR leukemia
[49] = test system: SW-620 colon
[50] = test system: T-47D breast
[51] = test system: TK-10 renal
[52] = test system: U251 CNS
[53] = test system: UACC-257 melanoma
[54] = test system: UACC-62 melanoma
[55] = test system: UO-31 renal

Nc1ncnc2c1N=C(c1ccc3c(c1)OCO3)CC(c1ccc([N+](=O)[O-])cc1)N2 (stereo not given)
GI50 [1]: 79.1 µM
TGI [1]: > 100 µM
GI50 [2]: 25.1 µM
TGI [2]: 90 µM
GI50 [3]: 69.7 µM
TGI [3]: > 100 µM
GI50 [4]: 29.1 µM
TGI [4]: > 100 µM
GI50 [5]: 1.68 µM
TGI [5]: 53.1 µM
GI50 [6]: 25.5 µM
TGI [6]: > 100 µM
GI50 [7]: 92 µM
TGI [7]: > 100 µM
GI50 [8]: 46.3 µM
TGI [8]: > 100 µM
GI50 [9]: 92.6 µM
TGI [9]: > 100 µM
GI50 [10]: 66.1 µM
TGI [10]: > 100 µM
GI50 [11]: 18.2 µM
TGI [11]: > 100 µM
GI50 [12]: 9.55 µM
TGI [12]: > 100 µM
GI50 [13]: 13.1 µM
TGI [13]: > 100 µM
GI50 [14]: 67.6 µM
TGI [14]: > 100 µM
GI50 [15]: 9.18 µM
TGI [15]: > 100 µM
GI50 [16]: 63 µM
TGI [16]: > 100 µM
GI50 [17]: 0.0684 µM
TGI [17]: 3.24 µM
GI50 [18]: 22.5 µM
TGI [18]: > 100 µM
GI50 [19]: 35.2 µM
TGI [19]: > 100 µM
GI50 [20]: 22.9 µM
TGI [20]: > 100 µM
GI50 [21]: > 100 µM
TGI [21]: > 100 µM
GI50 [22]: 61.1 µM
TGI [22]: > 100 µM
GI50 [23]: 31.5 µM
TGI [23]: > 100 µM
GI50 [24]: 38.9 µM
TGI [24]: > 100 µM
GI50 [25]: 62 µM
TGI [25]: > 100 µM
GI50 [26]: 23.7 µM
TGI [26]: > 100 µM
GI50 [27]: > 100 µM
TGI [27]: > 100 µM
GI50 [28]: > 100 µM
TGI [28]: > 100 µM
GI50 [29]: 76.3 µM
TGI [29]: > 100 µM
GI50 [30]: 6.78 µM
TGI [30]: > 100 µM
GI50 [31]: 55.4 µM
TGI [31]: > 100 µM
GI50 [32]: 88.3 µM
TGI [32]: > 100 µM
GI50 [33]: > 100 µM
TGI [33]: > 100 µM
GI50 [34]: > 100 µM
TGI [34]: > 100 µM
GI50 [35]: 55.9 µM
TGI [35]: > 100 µM
GI50 [36]: 31.1 µM
TGI [36]: > 100 µM
GI50 [37]: 0.194 µM
TGI [37]: 49 µM
GI50 [38]: 7.19 µM
TGI [38]: 63.1 µM
GI50 [39]: 42 µM
TGI [39]: > 100 µM
GI50 [40]: 64.2 µM
TGI [40]: > 100 µM
GI50 [41]: > 100 µM
TGI [41]: > 100 µM
GI50 [42]: > 100 µM
TGI [42]: > 100 µM
GI50 [43]: 82.9 µM
TGI [43]: > 100 µM
GI50 [44]: > 100 µM
TGI [44]: > 100 µM
GI50 [45]: 82.6 µM
TGI [45]: > 100 µM
GI50 [46]: 84.9 µM
TGI [46]: > 100 µM
GI50 [47]: 39.4 µM
TGI [47]: > 100 µM
GI50 [48]: 2.37 µM
TGI [48]: 67.9 µM
GI50 [49]: 53.2 µM
TGI [49]: > 100 µM
GI50 [50]: 80.7 µM
TGI [50]: > 100 µM
GI50 [51]: 80.9 µM
TGI [51]: > 100 µM
GI50 [52]: 49.3 µM
TGI [52]: > 100 µM
GI50 [53]: > 100 µM
TGI [53]: > 100 µM
GI50 [54]: 76.9 µM
TGI [54]: > 100 µM
GI50 [55]: 18.1 µM
TGI [55]: > 100 µM
